Reference: ChEMBL document CHEMBL4837223, “Anti-angiogenesis Function of Ononin via Suppressing the MEK/Erk Signaling Pathway” (J Nat Prod, 2021)
Activity calls are given as the source filed them. The calls are words filed in the database; no cut-off is given here.

Columns and labels:
HUVEC [1] = assay: Induction of apoptosis in VEGF-stimulated HUVEC cells assessed as increase in early apoptotic cells at 250 nM measured after 48 hrs by AnnexinV-FITC/PI staining based flow cytometry; type: functional, cell-based; details: Homo sapiens
HUVEC [2] = assay: Induction of apoptosis in VEGF-stimulated HUVEC cells assessed as increase in late apoptotic cells at 250 nM measured after 48 hrs by AnnexinV-FITC/PI staining based flow cytometry; type: functional, cell-based; details: Homo sapiens
HUVEC [3] = assay: Induction of apoptosis in VEGF-stimulated HUVEC cells assessed as mitochondrial membrane potential alteration at 250 nM measured after 48 hrs by JC-1 staining based flow cytometry; type: functional, cell-based; details: Homo sapiens
HUVEC [4] = assay: Induction of apoptosis in VEGF-stimulated HUVEC cells assessed as increase in Bax/Bcl2 ratio at 250 nM measured after 48 hrs by western blot analysis; type: functional, cell-based; details: Homo sapiens
HUVEC [5] = assay: Induction of apoptosis in VEGF-stimulated HUVEC cells assessed as increase in cleaved caspase-3 protein expression at 250 nM measured after 48 hrs by western blot analysis; type: functional, cell-based; details: Homo sapiens
HUVEC [6] = assay: Induction of apoptosis in VEGF-stimulated HUVEC cells assessed as increase in cleaved caspase-9 protein expression at 250 nM measured after 48 hrs by western blot analysis; type: functional, cell-based; details: Homo sapiens
HUVEC [7] = assay: Antiangiogenic activity against VEGF-induced HUVEC cells assessed as reduction in cell migration at 5 uM measured after 48 hrs by Transwell assay; type: functional, cell-based; details: Homo sapiens
HUVEC [8] = assay: Antiangiogenic activity against VEGF-induced HUVEC cells assessed as reduction in wound healing at 5 uM measured after 48 hrs by scratch-wound healing assay; type: functional, cell-based; details: Homo sapiens
HUVEC [9] = assay: Antiangiogenic activity against VEGF-stimulated HUVEC cells assessed as reduction in number of sprouting tubules at 5 uM measured after 48 hrs by Matrigel assay based microscopic analysis; type: functional, cell-based; details: Homo sapiens
HUVEC [10] = assay: Induction of apoptosis in VEGF-stimulated HUVEC cells at 5 uM measured after 48 hrs by AnnexinV-FITC/PI staining based flow cytometry; type: functional, cell-based; details: Homo sapiens
HUVEC [11] = assay: Induction of apoptosis in VEGF-stimulated HUVEC cells assessed as mitochondrial membrane potential alteration at 5 uM measured after 48 hrs by JC-1 staining based flow cytometry; type: functional, cell-based; details: Homo sapiens
HUVEC [12] = assay: Induction of apoptosis in VEGF-stimulated HUVEC cells assessed as increase in Cytochrome c protein expression at 5 uM measured after 48 hrs by DAPI staining based confocal microscopy; type: functional, cell-based; details: Homo sapiens
HUVEC [13] = assay: Induction of apoptosis in VEGF-stimulated HUVEC cells assessed as increase in Bax/Bcl2 ratio at 5 uM measured after 48 hrs by western blot analysis; type: functional, cell-based; details: Homo sapiens
HUVEC [14] = assay: Induction of apoptosis in VEGF-stimulated HUVEC cells assessed as increase in cleaved caspase-3 protein expression at 5 uM measured after 48 hrs by western blot analysis; type: functional, cell-based; details: Homo sapiens
HUVEC [15] = assay: Downregulation of HIF-1alpha expression in VEGF-stimulated HUVEC cells at 5 uM measured after 48 hrs by western blot analysis; type: functional, cell-based; details: Homo sapiens
HUVEC [16] = assay: Inhibition of VEGFR2 expression in VEGF-induced HUVEC cells at 5 uM incubated for 48 hrs by DAPI staining based confocal microscopy; type: functional, cell-based; details: Homo sapiens
HUVEC [17] = assay: Cytotoxicity against HUVEC cells assessed as reduction in cell vaibility at 5 uM incubated for 48 hrs by MTT assay; type: cell-based; details: human
HUVEC [18] = assay: Induction of apoptosis in VEGF-stimulated HUVEC cells assessed as increase in cleaved caspase-9 protein expression at 5 uM measured after 48 hrs by western blot analysis; type: functional, cell-based; details: Homo sapiens
HUVEC [19] = assay: Downregulation of HIF-1alpha expression in VEGF-stimulated HUVEC cells at 5 uM measured after 48 hrs by DAPI staining based confocal microscopy; type: functional, cell-based; details: Homo sapiens
HUVEC [20] = assay: Effect on HIF-1beta expression in VEGF-stimulated HUVEC cells at 5 uM measured after 48 hrs by western blot analysis; type: functional, cell-based; details: Homo sapiens
[21] = target: Dual specificity mitogen-activated protein kinase kinase; MEK1/2 (Homo sapiens) (UniProt P36507+Q02750); assay: Inhibition of MEK1/2 in VEGF-stimulated HUVEC cells assessed as reduction in phosphorylated MEK1/2 level at 5 uM incubated for 48 hrs by immunoblot analysis; type: cell-based
Chain of Dual specificity mitogen-activated protein kinase kinase; MEK1/2 (Homo sapiens) (P36507 whole entry, looked up): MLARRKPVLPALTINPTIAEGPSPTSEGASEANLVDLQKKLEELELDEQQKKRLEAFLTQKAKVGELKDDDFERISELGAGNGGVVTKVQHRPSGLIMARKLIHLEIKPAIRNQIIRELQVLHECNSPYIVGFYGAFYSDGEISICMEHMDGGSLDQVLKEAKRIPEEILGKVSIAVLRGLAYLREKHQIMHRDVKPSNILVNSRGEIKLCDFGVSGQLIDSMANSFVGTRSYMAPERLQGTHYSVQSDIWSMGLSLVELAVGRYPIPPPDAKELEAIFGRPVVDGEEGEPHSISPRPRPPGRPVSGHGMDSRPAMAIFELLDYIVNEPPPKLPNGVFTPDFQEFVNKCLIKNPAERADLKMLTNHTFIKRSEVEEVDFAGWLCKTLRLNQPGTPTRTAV
Chain of Dual specificity mitogen-activated protein kinase kinase; MEK1/2 (Homo sapiens) (Q02750 whole entry, looked up): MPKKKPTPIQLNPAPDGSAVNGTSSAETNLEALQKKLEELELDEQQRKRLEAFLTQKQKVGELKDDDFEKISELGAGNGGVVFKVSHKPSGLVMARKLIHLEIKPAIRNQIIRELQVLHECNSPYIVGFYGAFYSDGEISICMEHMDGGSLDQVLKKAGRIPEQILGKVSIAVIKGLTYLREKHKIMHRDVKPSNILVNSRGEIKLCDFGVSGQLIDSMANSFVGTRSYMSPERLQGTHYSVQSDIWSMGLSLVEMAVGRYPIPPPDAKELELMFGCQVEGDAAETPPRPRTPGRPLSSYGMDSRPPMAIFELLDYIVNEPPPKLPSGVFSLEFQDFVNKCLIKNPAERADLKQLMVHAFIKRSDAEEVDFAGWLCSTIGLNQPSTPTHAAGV

[22] = target: Mitogen-activated protein kinase; ERK1/ERK2 (Homo sapiens) (UniProt P27361+P28482); assay: Inhibition of ERK1/2 in VEGF-stimulated HUVEC cells assessed as reduction in phosphorylated […] at 5 uM incubated for 48 hrs by immunoblot analysis; type: cell-based
Chain of Mitogen-activated protein kinase; ERK1/ERK2 (Homo sapiens) (P27361 whole entry, looked up): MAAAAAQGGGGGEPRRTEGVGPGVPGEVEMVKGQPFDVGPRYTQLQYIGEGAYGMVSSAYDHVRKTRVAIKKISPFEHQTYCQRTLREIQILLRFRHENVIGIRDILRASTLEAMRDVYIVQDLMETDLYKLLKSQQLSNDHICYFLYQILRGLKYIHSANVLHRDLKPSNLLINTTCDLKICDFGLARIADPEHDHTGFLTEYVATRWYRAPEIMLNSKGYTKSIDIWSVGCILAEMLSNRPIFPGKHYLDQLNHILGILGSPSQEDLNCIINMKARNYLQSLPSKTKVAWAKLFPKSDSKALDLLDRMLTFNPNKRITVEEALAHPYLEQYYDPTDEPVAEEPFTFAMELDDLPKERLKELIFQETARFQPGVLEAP
Chain of Mitogen-activated protein kinase; ERK1/ERK2 (Homo sapiens) (P28482 whole entry, looked up): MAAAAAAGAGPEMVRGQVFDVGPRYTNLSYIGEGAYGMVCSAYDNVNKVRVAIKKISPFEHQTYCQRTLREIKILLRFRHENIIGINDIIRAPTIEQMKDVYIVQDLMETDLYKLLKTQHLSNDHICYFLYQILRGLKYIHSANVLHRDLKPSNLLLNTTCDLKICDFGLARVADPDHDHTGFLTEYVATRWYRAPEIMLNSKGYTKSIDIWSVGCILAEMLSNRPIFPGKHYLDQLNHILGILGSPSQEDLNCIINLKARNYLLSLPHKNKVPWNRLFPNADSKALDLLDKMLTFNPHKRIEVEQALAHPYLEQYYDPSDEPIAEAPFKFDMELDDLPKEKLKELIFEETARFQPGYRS

For `CN[C@@H]1C[C@H]2O[C@@](C)([C@@H]1OC)n1c3ccccc3c3c4c(c5c6ccccc6n2c5c31)C(=O)NC4`, the Activity (HUVEC [1]) was “Active”, the Activity (HUVEC [2]) was “Active” and the Activity (HUVEC [3]) was “Active”. The Activity (HUVEC [4]) was “Active”, the Activity (HUVEC [5]) was “Active” and the Activity (HUVEC [6]) was “Active”.
`COc1ccc(-c2coc3cc(O[C@@H]4O[C@H](CO)[C@@H](O)[C@H](O)[C@H]4O)ccc3c2=O)cc1` [ONONIN] was tested, and the Activity (HUVEC [7]) was “Active”, the Activity (HUVEC [8]) was “Active” and the Activity (HUVEC [9]) was “Active”. For the same compound, the Activity (HUVEC [10]) was “Active”, the Activity (HUVEC [11]) was “Active” and the Activity (HUVEC [12]) was “Active”. The Activity (HUVEC [13]) was “Active”, the Activity (HUVEC [14]) was “Active” and the inhibition (HUVEC [15]) was “Active”. For the same compound, the inhibition (HUVEC [16]) was “Active”, the Activity (HUVEC [17]) was “Non-Toxic” and the Activity (HUVEC [18]) was “Active”. The inhibition (HUVEC [19]) was “Active”, the Activity (HUVEC [20]) was “inactive” and the inhibition [21] was “Active”. The inhibition [22] was “Active”.
